HELM strings list units from the 5' end as sugar, base in round brackets, then linkage (d deoxyribose, r ribose, m 2'-O-methyl, p phosphodiester). Strings are as the collection lists them; they lack the last nucleoside at the 3' end of the tested compound. [moe] = 2'-O-(2-methoxyethyl) (MOE); [sp] = phosphorothioate linkage; [m5C] = 5-methylcytosine
Target: PRNP
Test: mouse, dose not given
Conditions: ASO

Going from “RNA1{[moe](G)[sp].[moe]([m5C])p.[moe](T)p.[moe](T)p.[moe](A)[sp].d(T)[sp].d(T)[sp].d(A)[sp].d(T)[sp].d(T)[sp].d([m5C])[sp].d(A)[sp].d(T)[sp].d(G)[sp].d(T)[sp].[moe](T)p.[moe]([m5C])p.[moe](T)[sp].[moe]([m5C])}$$$$ (last 3' nucleoside missing)” to “RNA1{[moe](G)[sp].[moe](T)p.[moe]([m5C])p.[moe](A)p.[moe](T)p.d(A)[sp].d(A)[sp].d(T)[sp].d(T)[sp].d(T)[sp].d(T)[sp].d([m5C])[sp].d(T)[sp].d(T)[sp].[moe](A)[sp].[moe](G)p.[moe]([m5C])p.[moe](T)}$$$$ (last 3' nucleoside missing)”, the 3 h FOB score falls from 3.5 score 0-7 to 0 score 0-7.

Compared with “RNA1{[moe](A)[sp].[moe](G)p.[moe](G)p.[moe](G)p.[moe]([m5C])[sp].d(A)[sp].d(T)[sp].d(T)[sp].d(A)[sp].d(G)[sp].d(T)[sp].d(A)[sp].d(T)[sp].d(A)[sp].d([m5C])[sp].[moe](T)p.[moe](G)p.[moe](A)[sp].[moe](G)}$$$$ (last 3' nucleoside missing)”, “RNA1{[moe](G)[sp].[moe](G)p.[moe]([m5C])p.[moe](A)p.[moe](A)[sp].d(A)[sp].d(G)[sp].d(G)[sp].d(T)[sp].d(A)[sp].d(T)[sp].d(T)[sp].d(T)[sp].d([m5C])[sp].d(A)[sp].[moe](G)p.[moe](A)p.[moe]([m5C])[sp].[moe](T)}$$$$ (last 3' nucleoside missing)” is higher in 3 h FOB score: 2.75 score 0-7 for the first, 6.5 score 0-7 for the second.

First: RNA1{[moe]([m5C])[sp].[moe](T)p.[moe](T)p.[moe](A)p.[moe](A)[sp].d(T)[sp].d(T)[sp].d(A)[sp].d(G)[sp].d(T)[sp].d(T)[sp].d(A)[sp].d([m5C])[sp].d(A)[sp].d(T)[sp].[moe]([m5C])p.[moe](G)p.[moe](G)[sp].[moe](G)}$$$$ (last 3' nucleoside missing)
Second: RNA1{[moe](G)[sp].[moe](T)p.[moe](G)p.[moe](T)p.[moe]([m5C])[sp].d(A)[sp].d(T)[sp].d(A)[sp].d(A)[sp].d(T)[sp].d(T)[sp].d(T)[sp].d(T)[sp].d([m5C])[sp].d(T)[sp].[moe](T)p.[moe](A)p.[moe](G)[sp].[moe]([m5C])}$$$$ (last 3' nucleoside missing)
The 3 h FOB score of the first is higher: 4.5 score 0-7 for the first, 0.5 score 0-7 for the second.

Going from “RNA1{[moe](T)[sp].[moe](G)p.[moe](T)p.[moe](T)p.[moe](A)[sp].d(T)[sp].d(T)[sp].d(T)[sp].d([m5C])[sp].d([m5C])[sp].d(T)[sp].d([m5C])[sp].d(T)[sp].d(G)[sp].d(T)[sp].[moe](G)p.[moe]([m5C])p.[moe](T)[sp].[moe](T)}$$$$ (last 3' nucleoside missing)” to “RNA1{[moe]([m5C])[sp].[moe](A)p.[moe](T)p.[moe](T)p.[moe](T)[sp].d(G)[sp].d(A)[sp].d(T)[sp].d(T)[sp].d(T)[sp].d([m5C])[sp].d(A)[sp].d(A)[sp].d(G)[sp].d(T)[sp].[moe]([m5C])p.[moe]([m5C])p.[moe]([m5C])[sp].[moe](A)}$$$$ (last 3' nucleoside missing)”, the 3 h FOB score falls from 3.75 score 0-7 to 3 score 0-7.

First: RNA1{[moe]([m5C])[sp].[moe](T)p.[moe](A)p.[moe](T)p.[moe](G)[sp].d(T)[sp].d(T)[sp].d(T)[sp].d(T)[sp].d([m5C])[sp].d([m5C])[sp].d(A)[sp].d(G)[sp].d(T)[sp].d(G)[sp].[moe]([m5C])p.[moe]([m5C])p.[moe]([m5C])[sp].[moe](A)}$$$$ (last 3' nucleoside missing)
Second: RNA1{[moe](G)[sp].[moe]([m5C])p.[moe]([m5C])p.[moe](T)p.[moe](T)[sp].d(A)[sp].d(A)[sp].d(T)[sp].d(T)[sp].d(A)[sp].d([m5C])[sp].d([m5C])[sp].d(T)[sp].d(A)[sp].d(T)[sp].[moe](A)p.[moe](G)p.[moe](T)[sp].[moe](T)}$$$$ (last 3' nucleoside missing)
The 3 h FOB score of the first is higher: 3 score 0-7 for the first, 1 score 0-7 for the second.

“RNA1{[moe](A)[sp].[moe](A)p.[moe](A)p.[moe]([m5C])p.[moe](G)[sp].d(T)[sp].d([m5C])[sp].d([m5C])[sp].d(A)[sp].d(T)[sp].d(T)[sp].d(T)[sp].d(T)[sp].d([m5C])[sp].d(T)[sp].[moe](G)p.[moe](T)p.[moe](G)[sp].[moe]([m5C])}$$$$ (last 3' nucleoside missing)” and “RNA1{[moe](T)[sp].[moe](G)p.[moe](G)p.[moe](T)p.[moe](A)[sp].d(G)[sp].d(T)[sp].d(T)[sp].d(T)[sp].d(T)[sp].d(T)[sp].d([m5C])[sp].d(A)[sp].d(A)[sp].d(A)[sp].[moe](T)p.[moe]([m5C])p.[moe](A)[sp].[moe](A)}$$$$ (last 3' nucleoside missing)” are the same in 3 h FOB score: 0 score 0-7 for the first, 0 score 0-7 for the second.

First: RNA1{[moe](A)[sp].[moe](A)p.[moe](T)p.[moe]([m5C])p.[moe](A)[sp].d(T)[sp].d(T)[sp].d([m5C])[sp].d(T)[sp].d(G)[sp].d(G)[sp].d(T)[sp].d(T)[sp].d(T)[sp].d([m5C])[sp].[moe]([m5C])p.[moe](A)p.[moe](G)[sp].[moe](G)}$$$$ (last 3' nucleoside missing)
Second: RNA1{[moe]([m5C])[sp].[moe](T)p.[moe](G)p.[moe](T)p.[moe]([m5C])[sp].d(A)[sp].d(T)[sp].d([m5C])[sp].d(T)[sp].d([m5C])[sp].d([m5C])[sp].d(A)[sp].d(A)[sp].d([m5C])[sp].d([m5C])[sp].[moe](T)p.[moe](A)p.[moe](A)[sp].[moe](G)}$$$$ (last 3' nucleoside missing)
The 3 h FOB score of the first is lower: 0.5 score 0-7 for the first, 1 score 0-7 for the second.

Compared with “RNA1{[moe](G)[sp].[moe]([m5C])p.[moe](A)p.[moe]([m5C])p.[moe](A)p.d([m5C])[sp].d(T)[sp].d(G)[sp].d(A)[sp].d([m5C])[sp].d([m5C])[sp].d(A)[sp].d(T)[sp].d(T)[sp].[moe](T)[sp].[moe](T)p.[moe](T)p.[moe](T)}$$$$ (last 3' nucleoside missing)”, “RNA1{[moe](T)[sp].[moe](T)p.[moe](T)p.[moe](G)p.[moe](G)[sp].d(A)[sp].d(G)[sp].d(G)[sp].d([m5C])[sp].d(T)[sp].d([m5C])[sp].d(T)[sp].d(T)[sp].d(T)[sp].d(T)[sp].[moe](A)p.[moe](G)p.[moe](G)[sp].[moe](T)}$$$$ (last 3' nucleoside missing)” is higher in 3 h FOB score: 0 score 0-7 for the first, 4 score 0-7 for the second.

Going from “RNA1{[moe]([m5C])[sp].[moe]([m5C])p.[moe](A)p.[moe]([m5C])p.[moe](A)[sp].d(T)[sp].d(A)[sp].d(T)[sp].d(A)[sp].d(G)[sp].d(G)[sp].d(G)[sp].d(T)[sp].d([m5C])[sp].d([m5C])[sp].[moe](T)p.[moe](T)p.[moe](T)[sp].[moe](A)}$$$$ (last 3' nucleoside missing)” to “RNA1{[moe](G)[sp].[moe]([m5C])p.[moe](T)p.[moe](T)p.[moe](A)p.[moe]([m5C])p.d(T)[sp].d([m5C])[sp].d(G)[sp].d(G)[sp].d([m5C])[sp].d(T)[sp].d(T)[sp].d(G)[sp].d(T)[sp].d(T)[sp].[moe]([m5C])p.[moe]([m5C])[sp].[moe](A)}$$$$ (last 3' nucleoside missing)”, the 3 h FOB score falls from 1.5 score 0-7 to 0.75 score 0-7.

“RNA1{[moe](T)[sp].[moe](G)p.[moe](T)p.[moe](A)p.[moe](G)[sp].d(A)[sp].d(A)[sp].d(G)[sp].d([m5C])[sp].d(A)[sp].d(T)[sp].d(T)[sp].d(G)[sp].d(T)[sp].d(A)[sp].[moe]([m5C])p.[moe]([m5C])p.[moe](T)[sp].[moe]([m5C])}$$$$ (last 3' nucleoside missing)” gave a 3 h FOB score of 4.5 score 0-7.

Reference: the OligoGym collection
